# Test system: P12-Ichikawa
# Test: cell viability relative to DMSO control; higher = less cytotoxic
# Details: 48 h
# How it was run: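 NOMO1 or SEM cells were plated at 500 cells/well and P12-Ichikawa cells at 1000 cells/well in 1536-well plates (5 μl), after each leukemia line had been adapted for at least four passages in each medium. Pin dosing delivered library compounds in DMSO at 11 threefold concentrations, 47 μM to 0.79 nM. CellTiter-Glo One luminescence was read after 48 h at 37°C. Viability is reported as a per-plate percentage of DMSO wells, with cell-free wells as background.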
# [1] = HPLM + 10% dialyzed FBS, 0.000781 µM
# [2] = HPLM + 10% dialyzed FBS, 0.00234 µM
# [3] = HPLM + 10% dialyzed FBS, 0.00702 µM
# [4] = HPLM + 10% dialyzed FBS, 0.0211 µM
# [5] = HPLM + 10% dialyzed FBS, 0.0632 µM
# [6] = HPLM + 10% dialyzed FBS, 0.19 µM
# [7] = HPLM + 10% dialyzed FBS, 0.569 µM
# [8] = HPLM + 10% dialyzed FBS, 1.71 µM
# [9] = HPLM + 10% dialyzed FBS, 5.12 µM
# [10] = HPLM + 10% dialyzed FBS, 15.4 µM
# [11] = HPLM + 10% dialyzed FBS, 46.1 µM
# [12] = RPMI 5 mM glucose + 10% FBS, 0.000781 µM
# [13] = RPMI 5 mM glucose + 10% FBS, 0.00234 µM
# [14] = RPMI 5 mM glucose + 10% FBS, 0.00702 µM
# [15] = RPMI 5 mM glucose + 10% FBS, 0.0211 µM
# [16] = RPMI 5 mM glucose + 10% FBS, 0.0632 µM
# [17] = RPMI 5 mM glucose + 10% FBS, 0.19 µM
# [18] = RPMI 5 mM glucose + 10% FBS, 0.569 µM
# [19] = RPMI 5 mM glucose + 10% FBS, 1.71 µM
# [20] = RPMI 5 mM glucose + 10% FBS, 5.12 µM
# [21] = RPMI 5 mM glucose + 10% FBS, 15.4 µM
# [22] = RPMI 5 mM glucose + 10% FBS, 46.1 µM
# [23] = RPMI 5 mM glucose + 10% dialyzed FBS, 0.000781 µM
# [24] = RPMI 5 mM glucose + 10% dialyzed FBS, 0.00234 µM
# [25] = RPMI 5 mM glucose + 10% dialyzed FBS, 0.00702 µM
# [26] = RPMI 5 mM glucose + 10% dialyzed FBS, 0.0211 µM
# [27] = RPMI 5 mM glucose + 10% dialyzed FBS, 0.0632 µM
# [28] = RPMI 5 mM glucose + 10% dialyzed FBS, 0.19 µM
# [29] = RPMI 5 mM glucose + 10% dialyzed FBS, 0.569 µM
# [30] = RPMI 5 mM glucose + 10% dialyzed FBS, 1.71 µM
# [31] = RPMI 5 mM glucose + 10% dialyzed FBS, 5.12 µM
# [32] = RPMI 5 mM glucose + 10% dialyzed FBS, 15.4 µM
# [33] = RPMI 5 mM glucose + 10% dialyzed FBS, 46.1 µM
Compound,cell viability [1],cell viability [2],cell viability [3],cell viability [4],cell viability [5],cell viability [6],cell viability [7],cell viability [8],cell viability [9],cell viability [10],cell viability [11],cell viability [12],cell viability [13],cell viability [14],cell viability [15],cell viability [16],cell viability [17],cell viability [18],cell viability [19],cell viability [20],cell viability [21],cell viability [22],cell viability [23],cell viability [24],cell viability [25],cell viability [26],cell viability [27],cell viability [28],cell viability [29],cell viability [30],cell viability [31],cell viability [32],cell viability [33]
OC1=CC2=C(C=C1)C(=O)\C(=C(O2)\C3=CC(=C(O)C=C3)O)O,102%,105%,98.2%,91.1%,94%,87.7%,89.5%,92.4%,86%,82.4%,44%,94.1%,94.7%,97.5%,87%,91.2%,96.5%,88.8%,85.5%,86%,88.1%,32.2%,86.5%,91.1%,88%,87.2%,97.6%,88.1%,85%,84.8%,90.4%,79.7%,32.5%
C[C@H]1C[C@H]2[C@@H]3CC[C@](O)(C(=O)CO)[C@@]3(C)C[C@H](O)[C@@H]2[C@@]\4(C)/C=C\C(=O)\C=C14,96.9%,97.4%,96.9%,91.7%,98.7%,88.1%,64.1%,64.9%,57.3%,57.6%,56.9%,91.2%,96.3%,95.4%,96.8%,78.5%,80%,55.2%,50.4%,47.6%,48.2%,45%,85.3%,88.2%,84.1%,93.5%,88.2%,74.2%,53.3%,40.6%,40.6%,38.6%,34.9%
C[C@]12Cc3cn[nH]c3C[C@@H]1CC[C@@H]1[C@@H]2CC[C@@]2(C)[C@H]1CC[C@]2(C)O,105%,116%,113%,113%,125%,110%,98.1%,107%,101%,120%,103%,108%,64.2%,123%,112%,120%,109%,102%,106%,113%,110%,93.7%,97.4%,112%,111%,97.2%,106%,111%,105%,99.6%,96.9%,97.5%,93.1%
N\C1=N\C2=C(N=C[N]2COCCO)C(=O)N1,98.2%,109%,106%,107%,111%,112%,111%,112%,109%,105%,91.3%,93.7%,112%,106%,115%,110%,99.4%,110%,106%,106%,92.3%,84.6%,97.2%,97.8%,111%,98.2%,105%,97.3%,110%,94.7%,98.9%,102%,85.1%
COc1cc(Nc2c(C#N)cnc3cc(OCCCN4CCN(C)CC4)c(OC)cc23)c(Cl)cc1Cl,112%,112%,110%,110%,117%,120%,120%,97.6%,42.4%,4.36%,4.46%,103%,123%,112%,115%,121%,122%,122%,109%,54.2%,6.74%,5.61%,111%,110%,126%,128%,124%,127%,129%,105%,64.5%,7.05%,5.93%
OC1=CC=C(C=C1)\C2=C\OC3=C(C(=CC(=C3)O)O)C2=O,107%,114%,112%,118%,114%,116%,119%,118%,118%,117%,122%,103%,104%,116%,107%,116%,126%,116%,125%,115%,115%,85.9%,103%,105%,108%,112%,119%,114%,120%,116%,95%,113%,69.5%
COc1cccc2c1C(=O)c1c(O)c3c(c(O)c1C2=O)C[C@@](O)(C(=O)CO)C[C@@H]3O[C@H]1C[C@H](N)[C@H](O[C@H]2CCCCO2)[C@H](C)O1,122%,127%,123%,123%,115%,125%,121%,92.3%,9.81%,113%,99%,122%,122%,120%,127%,117%,122%,106%,70.2%,6.23%,108%,94.6%,125%,121%,102%,128%,117%,114%,97.5%,71.5%,7.42%,93%,84.7%
COc1ccc(C(=O)c2c(C)n(CCN3CCOCC3)c3ccccc23)cc1,94.2%,104%,101%,95.2%,106%,111%,103%,109%,98.3%,111%,111%,89.3%,91.1%,95%,100%,97.5%,96.7%,101%,113%,84.4%,110%,98.9%,96.5%,93.2%,99.4%,98.2%,99.3%,102%,98.4%,93.8%,104%,112%,109%
Cc1c(-c2cccc3c(CCCOc4cccc5ccccc45)c(C(=O)O)n(Cc4cccnc4)c23)c(COc2ccc(N3CCN([S+](=O)([O-])N(C)C)CC3)cc2)nn1C,96%,94.3%,87.4%,93.2%,97.4%,91.6%,88.5%,85.8%,91%,80.3%,71.6%,92.1%,87.7%,94.1%,85.6%,87.2%,92.7%,84.2%,88%,91.2%,87%,74%,91.7%,93.4%,91.4%,95.3%,93%,88.2%,82.8%,90.8%,81.3%,82.4%,67%
Cc1ccccc1C(OCCN(C)C)c1ccccc1 (configuration not stated),106%,118%,117%,110%,113%,118%,107%,129%,127%,123%,123%,–,–,–,–,–,–,–,–,–,–,–,114%,126%,118%,123%,121%,113%,124%,131%,124%,128%,116%
C[C@@H](NCCCc1cccc(C(F)(F)F)c1)c1cccc2ccccc12,120%,123%,117%,125%,109%,118%,114%,118%,113%,100%,115%,–,–,–,–,–,–,–,–,–,–,–,–,–,–,–,–,–,–,–,–,–,–
NC[C@@H]1O[C@H](O[C@H]2[C@@H](O)[C@H](O[C@@H]3[C@@H](O)[C@H](N)C[C@H](N)[C@H]3O[C@H]3O[C@H](CN)[C@@H](O)[C@H](O)[C@H]3N)O[C@@H]2CO)[C@H](N)[C@@H](O)[C@@H]1O.O=S(=O)(O)O.O=S(=O)(O)O.O=S(=O)(O)O,108%,96.4%,108%,107%,105%,107%,103%,103%,107%,99.5%,98.3%,102%,97.9%,104%,98%,103%,97.6%,101%,98%,100%,96.4%,96%,105%,100%,105%,103%,96.8%,102%,102%,93.3%,94.6%,97.9%,93.4%
c1ccc2c(Cc3c[nH]c4ccccc34)c[nH]c2c1,94.9%,101%,93.7%,95.8%,97%,95.4%,95.1%,91.1%,89.7%,87.4%,29.9%,100%,93.3%,95%,92.2%,82.2%,90.4%,86.7%,91.2%,88.7%,89.3%,32.8%,86%,94.3%,92.2%,84.8%,89.6%,92%,96.8%,94%,86.3%,85.2%,38%
CCN1C[C@H](C)[N]2C(=C(O)C3=C2\C(=N/N(CC4=CC=C(F)C(=C4)Cl)C3=O)C(=O)NC)C1=O,111%,116%,126%,102%,124%,121%,111%,97.4%,103%,107%,112%,103%,115%,115%,110%,113%,114%,111%,101%,101%,105%,94.7%,102%,105%,108%,116%,105%,101%,117%,108%,89.7%,92.4%,92.5%
CN(C)C1=CC(=CC=C1)C\2=C\3C(=O)N(NC3=C/C(=O)N2C)C4=CC=CC=C4Cl,114%,112%,106%,111%,113%,95.8%,90.3%,10.8%,4.69%,4.7%,7.14%,113%,122%,116%,110%,117%,110%,103%,25.7%,9.73%,8.05%,15.8%,122%,114%,114%,112%,120%,109%,102%,41.3%,21.1%,16.6%,23.9%

# Source: the supplement of paper PMC11451515
